According to patent publication US20240327334A1, “Covalent Inhibitors As Antiviral Agents” (Enanta Pharmaceuticals, Inc., priority 2022, published 2024):

Legend:
[1] = target: SARS-CoV-2 Papain-like (PLpro) protease (Severe acute respiratory syndrome coronavirus 2, UniProt P0DTD1); test: SARS-CoV-2 Papain-like (PLpro) protease biochemical enzyme inhibition assay (ubiquitin-fluorophore substrate, Ub-R110); settings: Ub-R110 substrate; run in duplicate; read-out: PLpro IC50
SARS-CoV-2 replicon = test: microbe, parasite or virus in culture; format: cell-based; settings: Severe acute respiratory syndrome coronavirus 2, Huh-7

Structure (SMILES) | IC50 [1] [nM] | EC50 (SARS-CoV-2 replicon) [nM]
N#CCNC(=O)C(=O)NCc1ccccc1C(=O)NC1(c2cc(-c3cccs3)cc(-c3cccs3)c2)CC1 [Example 452] | < 100 | 1000 to 10000
O=C(NCC#Cc1ccccn1)C(=O)NCc1ccccc1C(=O)NC1(c2ccc3ccccc3c2)CC1 [Example 174] | < 100 | < 1000
O=C(NCC#Cc1cnc(C(F)(F)F)nc1)C(=O)NCc1ccccc1C(=O)NC1(c2ccc3ccccc3c2)CC1 [Example 181] | < 100 | < 1000
C#CCNC(=O)C(=O)NCc1ccccc1C(=O)NC1(c2ccc3c4c(cccc24)CC3)CC1 [Example 441, N1-(2-((1-(1,2-dihydroacenaphthylen-5-yl)cyclopropyl)carbamoyl)benzyl)-N2-(prop-2-yn-1-yl)oxalamide] | < 100 | < 1000
N#Cc1cc(F)c(C#CCNC(=O)C(=O)NCc2ccccc2C(=O)NC2(c3ccc4ccccc4c3)CC2)c(F)c1 [Example 87] | < 100 | < 1000
C#CCNC(=O)C(=O)NCc1ccccc1C(=O)NC1(c2cc(-c3cnn(C4CC4)c3)ccc2Cl)CC1 [Example 384] | < 100 | < 1000
N#CCNC(=O)C(=O)NCc1ccccc1C(=O)NC1(c2cc(F)cc(-c3cccs3)c2)CC1 [Example 220] | < 100 | 1000 to 10000
C[C@@H](C#Cc1ccccc1C#N)NC(=O)C(=O)NCc1ccccc1C(=O)NC1(c2ccc3nn(C)cc3c2)CC1 [Example 99] | < 100 | < 1000
COCC1CCCN1c1cc(C2(NC(=O)c3ccccc3CNC(=O)C(=O)NCC#N)CC2)c2ccccc2c1 (stereo not drawn) [Example 324] | < 100 | 1000 to 10000
Cc1cc(C#N)ccc1C#CCNC(=O)C(=O)NCc1ccccc1C(=O)NC1(c2ccc3ccccc3c2)CC1 [Example 85] | < 100 | < 1000
CS(=O)(=O)/C=C/CNC(=O)C(=O)NCc1ccccc1C(=O)NC1(c2ccc3ccccc3c2)CC1 [Example 161] | < 100 | < 1000
Cc1nn(C)c(C)c1-c1cc(F)c(F)c(C2(NC(=O)c3ccccc3CNC(=O)C(=O)NCC#Cc3nccs3)CC2)c1 [Example 297] | < 100 | < 1000
O=C(NCC#Cc1ncc(F)cc1F)C(=O)NCc1ccccc1C(=O)NC1(c2ccc3ccccc3c2)CC1 [Example 188] | < 100 | < 1000
O=C(NCC#Cc1ccc(Cl)nn1)C(=O)NCc1ccccc1C(=O)NC1(c2ccc3ccccc3c2)CC1 [Example 199] | < 100 | < 1000
CNN(C)C(=O)/C=C/CNC(=O)C(=O)NCc1ccccc1C(=O)NC1(c2cccc3ccccc23)CC1 [Example 559] | 100 to 1000 | 1000 to 10000
C#CCNC(=O)C(=O)NCc1ccccc1C(=O)NC1(c2cc(F)cc(-c3cnn(C)c3)c2)CC1 [Example 238] | < 100 | < 1000
O=C(NCC#Cc1nccs1)C(=O)NCc1ccccc1C(=O)NC1(c2cc(-c3cnn(C4CC4)c3)cc(C3CC3)c2)CC1 [Example 134] | < 100 | < 1000
C[C@@H](C#Cc1ncccc1Cl)NC(=O)C(=O)NCc1ccccc1C(=O)NC1(c2cc(F)cc(-c3cnn(C4CC4)c3)c2)CC1 [Example 264] | < 100 | < 1000
C[C@@H](C#Cc1nccs1)NC(=O)C(=O)NCc1ccccc1C(=O)NC1(c2ccc3c(cnn3C)c2)CC1 [Example 346] | < 100 | < 1000

Structure (SMILES) | IC50 [1] [nM] | EC50 (SARS-CoV-2 replicon) [nM]
C[C@@H](C#Cc1nccs1)NC(=O)C(=O)NCc1ccccc1C(=O)NC1(c2cc(Cl)c3nn(C4CC4)cc3c2)CC1 [Example 335] | < 100 | < 1000
COc1cc(C2(NC(=O)c3ccccc3CNC(=O)C(=O)NCC#Cc3ccc(C#N)cc3OC(F)(F)F)CC2)cc2cn(C3CC3)nc12 [Example 215] | < 100 | < 1000
CON(C)C(=O)/C=C/CNC(=O)C(=O)NCc1ccccc1C(=O)NC1(c2cccc3ccccc23)CC1 [Example 573] | 100 to 1000 | 1000 to 10000
N#CCNC(=O)C(=O)NCc1ccc(C#N)cc1C(=O)NC1(c2ccc(F)c3ccccc23)CC1 [Example 55] | < 100 | 1000 to 10000
N#CCNC(=O)C(=O)NCc1ccccc1C(=O)NC1(c2ccc(F)c(-c3cnn(C4CC4)c3)c2)CC1 [Example 221] | < 100 | 1000 to 10000
N#CCNC(=O)C(=O)NCc1ccccc1C(=O)NC1(c2ccc(F)c3ccccc23)CC1 [Example 121] | < 100 | < 1000
Cc1nn(C)cc1-c1cc(F)cc(C2(NC(=O)c3ccccc3CNC(=O)C(=O)N[C@@H](C)C#Cc3ncccc3Cl)CC2)c1 [Example 275] | < 100 | < 1000
O=C(NCC#Cc1ncccc1C(F)(F)F)C(=O)NCc1ccccc1C(=O)NC1(c2ccc3ccccc3c2)CC1 [Example 191] | < 100 | < 1000
Cn1cc2cc(C3(NC(=O)c4ccccc4CNC(=O)C(=O)NCC#Cc4ncccc4OCC(F)F)CC3)ccc2n1 [Example 211] | < 100 | < 1000
C#CCNC(=O)C(=O)NCc1ccccc1C(=O)NC1(c2cccc3nn(C)cc23)CC1 [Example 342] | < 100 | < 1000
C#CCNC(=O)C(=O)NCc1ccccc1C(=O)NC1(c2ccc(F)c(-c3cnn(C4CC4)c3)c2)CC1 [Example 225] | < 100 | < 1000
CC(C)(C)OC(=O)/C=C/CNC(=O)C(=O)NCc1ccccc1C(=O)NC1(c2cccc3ccccc23)CC1 [Example 571] | 100 to 1000 | 1000 to 10000
O=C(NCC#Cc1cccc(F)n1)C(=O)NCc1ccccc1C(=O)NC1(c2ccc3ccccc3c2)CC1 [Example 196] | < 100 | < 1000
C[C@@H](C#Cc1nccs1)NC(=O)C(=O)NCc1ccccc1C(=O)NC1(c2ccc3nn(CC(F)(F)F)cc3c2)CC1 [Example 323] | < 100 | < 1000
N#CN1CC[C@H]1CNC(=O)C(=O)NCc1ccccc1C(=O)NC1(c2cccc3ccccc23)CC1 [Example 500] | < 100 | < 1000
N#CCNC(=O)C(=O)NCc1ccccc1C(=O)NC1(c2cc(-c3cnn(C4CC4)c3)cc(C3CC3)c2)CC1 [Example 133] | < 100 | 1000 to 10000
O=C(NCC#Cc1cscn1)C(=O)NCc1ccccc1C(=O)NC1(c2cccc3ccccc23)CC1 [Example 159] | < 100 | < 1000
CC(C)(O)Cn1cc(-c2cc(F)cc(C3(NC(=O)c4ccccc4CNC(=O)C(=O)NCC#Cc4ncccc4Cl)CC3)c2)cn1 [Example 281] | < 100 | < 1000
O=C(NCC#Cc1nccs1)C(=O)NCc1ccccc1C(=O)NC1(c2ccn3nccc3c2)CC1 [Example 399] | < 100 | < 1000

Structure (SMILES) | IC50 [1] [nM] | EC50 (SARS-CoV-2 replicon) [nM]
O=C(NCC#Cc1cscn1)C(=O)NCc1ccccc1C(=O)NC1(c2ccc3ccccc3c2)CC1 [Example 165] | < 100 | 1000 to 10000
N#CCNC(=O)C(=O)NCc1ccccc1C(=O)NC1(c2cc(-c3ccn(C(F)F)n3)cc3ccccc23)CC1 [Example 293] | < 100 | < 1000
N#CCNC(=O)C(=O)NCc1ccccc1C(=O)NC1(c2cc(Cl)cc(-c3cncs3)c2)CC1 [Example 448] | < 100 | 1000 to 10000
Cc1nn(C)c(C)c1-c1cc(F)cc(C2(NC(=O)c3ccccc3CNC(=O)C(=O)NCC#Cc3nccs3)CC2)c1F [Example 295] | < 100 | < 1000
C[C@@H](C#Cc1nccs1)NC(=O)C(=O)NCc1ccccc1C(=O)NC1(c2ccnc3c2ccn3C2CC2)CC1 [Example 402] | < 100 | < 1000
CCN(OC)C(=O)/C=C/CNC(=O)C(=O)NCc1ccccc1C(=O)NC1(c2cccc3ccccc23)CC1 [Example 558] | 100 to 1000 | 1000 to 10000
CC(C)(O)c1cccc(-c2cc(C3(NC(=O)c4ccccc4CNC(=O)C(=O)NCC#N)CC3)c3ccccc3c2)n1 [Example 283] | < 100 | < 1000
O=C(NCC#Cc1nccs1)C(=O)NCc1ccccc1C(=O)NC1(c2cc(F)cc(-c3ccn(C(F)F)n3)c2)CC1 [Example 136] | < 100 | < 1000
C[C@@H](C#Cc1ncccc1Cl)NC(=O)C(=O)NCc1ccccc1C(=O)NC1(c2ccc3nn(C)cc3c2)CC1 [Example 272] | < 100 | < 1000
O=C(NCC#Cc1nccs1)C(=O)NCc1ccccc1C(=O)NC1(c2cc(-c3ccn(C4CC4)n3)cc(F)c2F)CC1 [Example 305] | < 100 | < 1000
CC(C)n1ncnc1C#C[C@H](C)NC(=O)C(=O)NCc1ccccc1C(=O)NC1(c2cc(F)cc(-c3cnn(C4CC4)c3)c2)CC1 [Example 276] | < 100 | < 1000
Cn1cc2cc(C3(NC(=O)c4ccccc4CNC(=O)C(=O)NCC4CN(C#N)C4)CC3)ccc2n1 [Example 432] | 100 to 1000 | 1000 to 10000
N#CCNC(=O)C(=O)NCc1ccccc1C(=O)NC1(c2cc(-c3cnn(C4CC4)c3)cc3ncccc23)CC1 [Example 415] | < 100 | 1000 to 10000
N#CCNC(=O)C(=O)NCc1ccccc1C(=O)NC1(c2ccc3sc4ccccc4c3c2)CC1 [Example 369] | < 100 | 1000 to 10000
Cc1nn(C2CC2)c(C)c1-c1cc(Cl)cc(C2(NC(=O)c3ccccc3CNC(=O)C(=O)NCC#Cc3nccs3)CC2)c1 [Example 132] | < 100 | < 1000
N#CCNC(=O)C(=O)NCc1ccccc1C(=O)NC1(c2cc(C#N)cc3ccccc23)CC1 [Example 294] | < 100 | < 1000
C[C@@H](NC(=O)c1ccccc1CNC(=O)C(=O)NCC#N)c1cc(-c2cccs2)cc(C(F)(F)F)c1 [Example 460] | < 100 | < 1000
N#CCNC(=O)C(=O)NCc1ccccc1C(=O)NC1(c2cc(Cl)cc(-c3cnn(C4CC4)c3)c2)CC1 [Example 454] | < 100 | 1000 to 10000
C[C@@H](C#Cc1ncccc1Cl)NC(=O)C(=O)NCc1ccccc1C(=O)NC1(c2cc(F)cc(-c3cnn(CC(C)(C)O)c3)c2)CC1 [Example 280] | < 100 | < 1000
